What was measured:
Type in all cases: in vitro ADME
[1] = tested on: MDR1; test: MDCK-MDR1 permeability assay; settings: dog, MDCK-MDR1, MDCK-MDR1 cells; for efflux ratio at 2 h, 3 μM: Papp B→A divided by Papp A→B, read-out: Efflux ratio (ER); for Papp A→B at 2 h, 3 μM: test compound 3 μM, 2 hours at 37 degrees C, apical to basolateral
Description: The bidirectional permeability (Apical to Basal and Basal to Apical directions) of test compounds in MDCK-MIDR1 cells were evaluated using MDCK-MIDR1 cells seeded in Solvo PreadyPort™ MDCK 96-well plate. Once the plate was received from ReadyCell (Barcelona, Spain), it was treated as per PreadyPort™ user's manual.
For the Apical to Basolateral (A→B) permeability, 80 μL of test compound (3 μM) co-dosed with LY (Lucifer Yellow) (100 μM) in HBSS (Hank's Balanced Salt Solution) assay buffer was added to the donor side (A) while 250 μL of HBSS buffer was added to the receiver side (B). For the Basolateral to Apical (B→A) permeability, 255 μL of test compound (3 μM) in HBSS assay buffer was added to the donor side (B) while 75 μL of HBSS buffer containing LY (100 μM) was added to the receiver side (A).
The plate was placed in an incubator set at 37 degrees C. After 10 minutes of pre-warming, 5 μL aliquot was taken from donor compartment and set aside as the dosing solution. The MDCK-MDR1 incubation plate was placed back into the incubator for 2 hours of incubation at 37 degrees C. After 2 hours of incubation, 25 μL and 5 μL aliquots were removed from the receiver and donor sides, respectively. To the 5 μL aliquots taken from the donor sides (before and after a 2-hour incubation) were diluted with 20 μL of the HBSS buffer. All samples were mixed with 150 μL with acetonitrile containing internal standard (IS) and 200 μL water, and analyzed by LC-MS/MS.
The apparent permeability (Papp) was calculated using the following formula: Papp=dQ/dt×1/A×C0 where: • dQ/dt: amount of translocated material over incubation time (nmol/s) • A: area of insert (0.14 cm^2 for PreadyPort™ MDR1-96) • C0: initial concentration of product applied in apical (A→B) or basal (B→A) compartment (nmol/mL)
The efflux ratio (ER) was measured by dividing the Papp (basolateral to apical direction) by Papp (apical to basolateral direction). It is a general measure of the involvement of active processes. An ER>2 is considered positive for active transport.
Percent recovery was measured using the following equation:
[formula] where: • VR: Volume of the receiver compartment (mL) • VD: Volume of the donor compartment (mL) • CN: Concentration of dosing solution (μM) collected after 10 minutes of incubation • CR^final: Receiver concentration at the end of the incubation (μM) • CD^final: Donor concentration at the end of the incubation (μM)
The data reported in Table 3 were obtained according to the MDCK-MDR1 permeability assay described above.

[2] = Hepatocytes stability assay (human hepatocytes); settings: both sexes, human, cryopreserved hepatocytes, cryopreserved human hepatocytes (pool of 50 mixed gender); 1 μM test compound; 1×10^6 cell/mL; 37 degrees C; read-out: CLint (μL/min/million cells)
Description: (§1) In vitro metabolic stability was assessed using cryopreserved hepatocytes from male Sprague Dawley rats and a pool of 50 mixed gender humans (BioIVT, Baltimore, MD). The incubation mixtures were prepared by mixing 250 μL of pre-warmed KHB (Krebs-Henseleit buffer) containing 2×10^6 cell/mL of hepatocytes with 250 μL of pre-warmed KHB buffer containing 2 μM of test compounds in a 48-well plate, giving a final concentration of 1 μM test compound (0.1% DMSO) and 1×10^6 cell/mL of hepatocytes. The reaction mixture was incubated at 37 degrees C. A 50 μL aliquot of incubation mixture was taken at time points (0, 15, 30, 60, 120 and 240 minutes) and transferred into a 96-well plate containing 300 μL ice-cold acetonitrile (containing 30 ng/mL of labetalol and 10 ng/mL of Naltrexone-d3 as internal standards) and immediately placed in ice to terminate the reaction. Samples were centrifuged, and supernatants were transferred into 96-well plates for liquid chromatography with tandem mass spectrometry (LC-MS/MS) analysis to monitor the depletion of the test compound.
(§2) Data was calculated as percent remaining by assuming zero-minute time point peak area ratio (analyte/IS) as 100% and dividing remaining time point peak area ratios by zero-minute time point peak area ratio. Data were fitted to a first-order decay model to determine half-life. From a plot of log (ln) peak area against time, the slope of the line was determined. Subsequently, half-life (T1/2) and intrinsic clearance (CLint) were calculated using the equations below: Elimination rate constant (k)=(−slope) Half-life (T1/2) min=0.693/k Intrinsic Clearance (CLint) (mL/min/million cells)=(V×0.693)/T1/2 V=incubation volume mL/number of cells The in vitro T1/2 was converted to in vitro intrinsic clearance (CLint,hep) in units of mL/min/kg using the formula shown below:
(§3) [formula] The in vitro intrinsic clearance (CLint,hep) was scaled to in vivo hepatic clearance (CL,hep) using the following equation which was adapted from a well-stirred model.
(§4) [formula] where Q is the liver blood flow and fu is the fraction unbound (assumed to be unity in this case). All parameters used in the calculation are shown below (Table 4).
(§5) The extraction ratio (ER) was calculated by dividing the hepatic clearance of a compound to the liver blood flow. The data reported in Table 5 were obtained according to the human hepatocytes stability assay described above.

[3] = tested on: human hepatocytes; test: Hepatocytes stability assay (human hepatocytes); settings: human hepatocytes; scaled hepatic clearance divided by liver blood flow (well-stirred model, fu assumed unity)
Description: as §1, §2, §3, §4, §5

Row | Structure (SMILES) | efflux ratio at 2 h, 3 μM [1] | Papp A→B at 2 h, 3 μM [1] | hepatocyte CLint at 1 μM [2] | Extraction Ratio (ER) [3]
1 | Cc1cccc2c1C1CCC(CC1)OC[C@H]1[C@@H](NS(=O)(=O)C3CC3)CCCN1C(=O)CO2 (stereo in doubt) [Compound 4] | 31 | 0.66 ×10⁻⁶ cm/s | 29 µL/min/1e6 cells | 0.81
2 | C=CS(=O)(=O)N[C@H]1CCCN2C(=O)COc3ccccc3C3CCC(CC3)OC[C@@H]12 (stereo in doubt) [Compound 5] | 29 | 1.3 ×10⁻⁶ cm/s | 22 µL/min/1e6 cells | 0.77
3 | O=C1COc2ccccc2C2CCC(CC2)OC[C@H]2[C@@H](NS(=O)(=O)CF)CCCN12 (stereo in doubt) [Compound 6] | 35 | 1 ×10⁻⁶ cm/s | 18 µL/min/1e6 cells | 0.73
4 | O=C1COc2ccccc2C2CCC(CC2)OC[C@H]2[C@@H](NS(=O)(=O)C(F)F)CCCN12 (stereo in doubt) [Compound 7] | 22 | 1.4 ×10⁻⁶ cm/s | 19 µL/min/1e6 cells | 0.74
5 | CC1(S(=O)(=O)N[C@H]2CCCN3C(=O)COc4ccccc4C4CCC(CC4)OC[C@@H]23)CC1 (stereo in doubt) [Compound 8] | 3.6 | 1.8 ×10⁻⁶ cm/s | 31 µL/min/1e6 cells | 0.82
6 | Cc1cccc2c1C1CCC(CC1)OC[C@H]1[C@@H](NS(=O)(=O)C(C)C)CCCN1C(=O)CO2 (stereo in doubt) [Compound 9] | 50 | 0.87 ×10⁻⁶ cm/s | 32 µL/min/1e6 cells | 0.83
7 | Cc1ccc2c(c1)C1CCC(CC1)OC[C@H]1[C@@H](NS(=O)(=O)C3CC3)CCCN1C(=O)CO2 (stereo in doubt) [Compound 13] | 72 | 0.35 ×10⁻⁶ cm/s | 6.3 µL/min/1e6 cells | 0.48
8 | O=C1COc2ncccc2C2CCC(CC2)OC[C@H]2[C@@H](NS(=O)(=O)C3CC3)CCCN12 (stereo in doubt) [Compound 14] | > 100 | 0.3 ×10⁻⁶ cm/s | 20 µL/min/1e6 cells | 0.75
9 | O=C1COc2ccc(Cl)cc2C2CCC(CC2)OC[C@H]2[C@@H](NS(=O)(=O)C3CC3)CCCN12 (stereo in doubt) [Compound 16] | > 100 | 0.2 ×10⁻⁶ cm/s | 6.1 µL/min/1e6 cells | 0.47
10 | Cc1ccc2c(c1)C1CCC(CC1)OC[C@H]1[C@@H](NS(=O)(=O)C(C)C)CCCN1C(=O)CO2 (stereo in doubt) [Compound 18] | 19 | 0.83 ×10⁻⁶ cm/s | 5.8 µL/min/1e6 cells | 0.46
11 | O=C1COc2ccccc2C2CCC(CC2)OC[C@H]2[C@@H](NS(=O)(=O)CCO)CCCN12 (stereo in doubt) [Compound 19] | > 100 | < 0.092 ×10⁻⁶ cm/s | 6.6 µL/min/1e6 cells | 0.50
12 | CC(C)S(=O)(=O)N[C@H]1CCCN2C(=O)COc3ccc(Cl)cc3[C@H]3CC[C@H](CC3)OCC12 (stereo in doubt) [Compound 26] | > 100 | < 0.12 ×10⁻⁶ cm/s | 5.1 µL/min/1e6 cells | 0.43
13 | Cc1c(Cl)ccc2c1[C@H]1CC[C@H](CC1)OCC1[C@@H](NS(=O)(=O)C(C)C)CCCN1C(=O)CO2 (stereo in doubt) [Compound 28] | 92 | 0.43 ×10⁻⁶ cm/s | 3.8 µL/min/1e6 cells | 0.36
14 | Cc1c(Cl)ccc2c1[C@H]1CC[C@H](CC1)OCC1[C@@H](NS(C)(=O)=O)CCCN1C(=O)CO2 (stereo in doubt) [Compound 31] | > 100 | 0.32 ×10⁻⁶ cm/s | 3.9 µL/min/1e6 cells | 0.37
15 | O=C1COc2ccccc2[C@H]2CC[C@H](CC2)OCC2[C@@H](NS(=O)(=O)C3CCCC3)CCCN12 (stereo in doubt) [Compound 33] | 59 | 0.55 ×10⁻⁶ cm/s | 41 µL/min/1e6 cells | 0.86
16 | Cc1cnc2c(c1)[C@H]1CC[C@H](CC1)OCC1[C@@H](NS(=O)(=O)C(C)C)CCCN1C(=O)CO2 (stereo in doubt) [Compound 34] | 67 | 0.44 ×10⁻⁶ cm/s | 7.1 µL/min/1e6 cells | 0.52
17 | CC(C)S(=O)(=O)N[C@H]1CCCN2C(=O)COc3ncc(Cl)cc3[C@H]3CC[C@H](CC3)OCC12 (stereo in doubt) [Compound 35] | 81 | 0.35 ×10⁻⁶ cm/s | 16 µL/min/1e6 cells | 0.70
18 | Cc1cccc2c1OCC(=O)N1CCC[C@H](NS(C)(=O)=O)C1CO[C@H]1CC[C@@H]2CC1 (stereo in doubt) [Compound 37] | > 100 | 0.23 ×10⁻⁶ cm/s | 24 µL/min/1e6 cells | 0.78
19 | CN(C)CCS(=O)(=O)N[C@H]1CCCN2C(=O)COc3ccccc3[C@H]3CC[C@H](CC3)OCC12 (stereo in doubt) [Compound 39] | > 100 | < 0.086 ×10⁻⁶ cm/s | 20 µL/min/1e6 cells | 0.75

Source: patent publication US12006330B2, “Substituted macrocyclic compounds and related methods of treatment” (Alkermes, Inc., priority 2020, dated 2024)
